From US20080076760A1, “2,3,4,5-TETRAHYDRO-1H-1,5-BENZODIAZEPINE DERIVATIVE AND MEDICINAL COMPOSITION” (priority 2004, published 2008)
Where a name gives a salt, the structure may show the parent alone.

How the values were obtained:
male ICR mice = experiment: Acute toxicity study, oral, male ICR mice; format: in vivo, mouse; conditions: single administration in 0.5% methylcellulose, observed 6 days
Description: Test compound suspended in 0.5% methylcellulose solution was orally administered to male ICR mice (body weight 25 to 35 g), which were separated into groups each having 5 mice, and body weight change and general symptom after 6 days since administration were observed. During the test period except for 17 to 20 hours before administration and after 2 hours since administration, mice were allowed to take feed and water ad libitum.

V1a receptor = target: T1, V1a receptor (Rattus norvegicus, UniProt P30560); experiment: V1a receptor antagonism in awake rat (oral administration), inhibition of AVP-induced vasopressure; format: in vivo; conditions: for AVP vasopressure inhibition effect after 8 hours since administration: 8 hours after administration; for maximum vasopressure inhibition rate: one third of the 3 mg/kg SR49059 dose, maximum after 2 to 6 hours since administration, 30 mU/kg AVP i.v.
T1 construct: from tissue; host or cells: whole animal: awake male Sprague-Dawley rats
T1 sequence (P30560 whole entry): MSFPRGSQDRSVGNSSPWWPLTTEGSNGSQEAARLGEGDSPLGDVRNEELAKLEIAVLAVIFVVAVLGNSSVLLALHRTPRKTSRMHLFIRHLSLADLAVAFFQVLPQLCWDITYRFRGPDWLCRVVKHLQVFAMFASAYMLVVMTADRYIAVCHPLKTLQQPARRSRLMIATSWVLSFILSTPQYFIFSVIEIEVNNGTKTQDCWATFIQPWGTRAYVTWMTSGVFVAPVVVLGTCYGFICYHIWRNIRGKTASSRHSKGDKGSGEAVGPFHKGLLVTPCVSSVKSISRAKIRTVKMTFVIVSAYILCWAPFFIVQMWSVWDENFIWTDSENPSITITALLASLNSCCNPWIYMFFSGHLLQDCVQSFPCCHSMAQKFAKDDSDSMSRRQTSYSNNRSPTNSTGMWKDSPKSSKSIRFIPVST
Description: One day before evaluation of test compounds, a cannula for blood pressure measurement was inserted into left carotid artery, and a cannula for arginine vasopressin (AVP) administration was inserted into left cervical vein. Blood pressure of artery cannula was measured via pressure transducer during rats were awake. During evaluation of test compounds, elevation breadth of mean blood pressure resulting from intravenous administration of 30 mU/kg of AVP was determined as a vasopressure control, in advance. After test compound was suspended in 0.5% methylcellulose solution and orally administered at 1 to 3 mg/kg, 30 mU/kg of AVP was intravenously administered at fixed time points from 0.5 to 8 hours, and vasopressure value was measured. [Vasopressure inhibition rate (%) at each measurement point after administration]=[(A−B)/A]×100 Wherein, control vasopressure=A, and vasopressure value at each measurement point=B

[1] = target: human vasopressin V1a receptor (Homo sapiens, UniProt P37288); experiment: Receptor binding study, [3H]AVP displacement on CHO cell membranes, human V1a; conditions: [3H]AVP displacement, CHO cell membrane, 25° C., one hour; read-out: Human V1a Ki
Sequence of human vasopressin V1a receptor (P37288 whole entry): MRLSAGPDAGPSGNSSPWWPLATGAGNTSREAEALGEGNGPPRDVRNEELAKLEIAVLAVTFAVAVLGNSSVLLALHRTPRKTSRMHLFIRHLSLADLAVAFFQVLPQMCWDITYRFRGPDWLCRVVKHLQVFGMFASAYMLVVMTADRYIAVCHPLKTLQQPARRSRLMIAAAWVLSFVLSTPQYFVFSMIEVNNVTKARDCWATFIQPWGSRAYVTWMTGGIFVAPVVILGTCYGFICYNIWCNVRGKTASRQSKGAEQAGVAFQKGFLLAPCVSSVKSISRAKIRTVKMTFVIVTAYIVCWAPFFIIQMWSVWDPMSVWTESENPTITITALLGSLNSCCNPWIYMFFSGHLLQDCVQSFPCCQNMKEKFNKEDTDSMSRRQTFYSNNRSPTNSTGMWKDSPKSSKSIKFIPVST
How it was run: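 Membrane binding in 50 mM Tris-HCl pH 7.4 with MgCl2 and 0.1% BSA, incubated 1 h at 25° C. Bound ligand collected by rapid filtration on glass fiber filters, washed with ice-cold buffer, and counted for radioactivity. Nonspecific binding defined with 1 μM unlabeled AVP.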

[2] = target: human vasopressin V2 receptor (Homo sapiens, UniProt P30518); experiment: Receptor binding study, [3H]AVP displacement on CHO cell membranes, human V2; conditions: [3H]AVP displacement, CHO cell membrane, 25° C., one hour; read-out: Human V2 Ki
Sequence of human vasopressin V2 receptor (P30518 whole entry): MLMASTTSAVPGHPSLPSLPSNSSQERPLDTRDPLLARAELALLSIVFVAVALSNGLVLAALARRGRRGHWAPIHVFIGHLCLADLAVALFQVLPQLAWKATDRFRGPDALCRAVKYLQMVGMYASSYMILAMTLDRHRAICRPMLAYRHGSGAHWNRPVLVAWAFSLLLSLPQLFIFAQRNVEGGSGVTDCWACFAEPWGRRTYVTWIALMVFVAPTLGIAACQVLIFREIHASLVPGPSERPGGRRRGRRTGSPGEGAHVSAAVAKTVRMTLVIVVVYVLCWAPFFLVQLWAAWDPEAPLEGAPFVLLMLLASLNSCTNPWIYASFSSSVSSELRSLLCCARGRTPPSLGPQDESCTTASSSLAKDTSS
How it was run: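 Membranes from CHO cells expressing human V2 receptor incubated with [3H]AVP (0.5-1.0 nM) and test compound at various concentrations in 50 mM Tris-HCl pH 7.4 with MgCl2 and 0.1% BSA, 1 h at 25 °C. Bound radioactivity counted after glass-fibre filtration; nonspecific binding defined with 1 μM unlabelled AVP.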

| Structure (SMILES) | Ki [1] | Ki [2] | Toxicity expressing dose (male ICR mice) | AVP vasopressure inhibition effect after 8 hours since administration (V1a receptor) | maximum vasopressure inhibition rate (V1a receptor) |
| --- | --- | --- | --- | --- | --- |
| CCCN(C)CCCCOc1cc(C(=O)N2CC[C@H](C)Nc3ccccc32)ccc1-c1ccc2[nH]ccc2c1 [117 fumarate] |  |  | >300 mg/kg | significant AVP vasopressure inhibition effect | 77.7% |
| CCCCN1CCN(CCCOc2cc(C(=O)N3CC[C@H](C)Nc4ccccc43)ccc2-c2ccc3[nH]ccc3c2)CC1 [122 maleate] |  |  | >300 mg/kg | significant AVP vasopressure inhibition effect | 67.3% |
| CCCN(C)C1CCN(CCOc2cc(C(=O)N3CC[C@H](C)Nc4ccccc43)ccc2-c2ccc3[nH]ccc3c2)CC1 [Example 151, N-[1-[2-[2-(1H-indol-5-yl)-5-[[(4S)-4-methyl-2,3,4,5-tetrahydro-1H-1,5-benzodiazepin-1-yl]carbonyl]phenoxy]ethyl]-4-piperidinyl]-N-methyl-N-propylamine] | 0.25 nM | 10 nM |  |  |  |
| CCCN(C)CCCOc1cc(C(=O)N2CC[C@H](C)Nc3ccccc32)ccc1-c1ccc(NCC)c(F)c1 [Example 154, N-ethyl-3-fluoro-2′-[3-[methyl(propyl)amino]propoxy]-4′-[[(4S)-4-methyl-2,3-4,5-tetrahydro-1H-1,5-benzodiazepin-1-yl]carbonyl][1,1′-biphenyl]-4-amine] | 0.4 nM | 53 nM |  |  |  |
| CCCN(C)CCCOc1cc(C(=O)N2CC[C@H](C)Nc3ccccc32)ccc1-c1ccc(OC(F)F)cc1 [Example 157, N-(3-[[4′-(difluoromethoxy)-4-[[(4S)-4-methyl-2,3,4,5-tetrahydro-1H-1,5-benzodiazepin-1-yl]carbonyl][1,1′-biphenyl]-2-yl]oxy]propyl]-N-methyl-N-propylamine] | 0.28 nM | 28 nM |  |  |  |
| C[C@H]1CCN(C(=O)c2ccc(-c3ccc4[nH]ccc4c3)c(C(=O)CCCCN(C)C)c2)c2ccccc2N1 [Example 158, 5-(dimethylamino)-1-[2-(1H-indol-5-yl)-5-[[(4S)-4-methyl-2,3,4,5-tetrahydro-1H-1,5-benzodiazepin-1-yl]carbonyl]phenyl]-1-pentanone] | 0.11 nM | 13 nM |  |  |  |
| CCCN1CCN(CCCOc2cc(C(=O)N3CC[C@H](C)Nc4ccccc43)ccc2-c2ccc(NCC)cc2)CC1 [Example 159, N-ethyl-4′-[[(4S)-4-methyl-2,3-4,5-tetrahydro-1H-1,5-benzodiazepin-1-yl]carbonyl]-2′-[3-(4-propyl-1-piperazinyl)propoxy][1,1′-biphenyl]-4-amine] | 0.18 nM | 11 nM |  |  |  |
| CCCN1CCN(CCOc2cc(C(=O)N3CC[C@H](C)Nc4ccccc43)ccc2-c2ccc(NCC)cc2)CC1 [Example 160, N-ethyl-4′-[[(4S)-4-methyl-2,3-4,5-tetrahydro-1H-1,5-benzodiazepin-1-yl]carbonyl]-2′-[2-(4-propyl-1-piperazinyl)ethoxy][1,1′-biphenyl]-4-amine] | 0.2 nM | 22 nM |  |  |  |
| CCCN(C)CCCOc1cc(C(=O)N2CC[C@H](C)Nc3ccccc32)ccc1-c1ccc(N)cc1 [Example 164, 2′-[3-[methyl(propyl)amino]propoxy]-4′-[[(4S)-4-methyl-2,3,4,5-tetrahydro-1H-1,5-benzodiazepin-1-yl]carbonyl][1,1′-biphenyl]-4-amine] | 0.15 nM | 477 nM |  |  |  |
| CCCNCCCOc1cc(C(=O)N2CC[C@H](C)Nc3ccccc32)ccc1-c1ccc(NCC)cc1 [Example 165, N-ethyl-4′-[[(4S)-4-methyl-2,3,4,5-tetrahydro-1H-1,5-benzodiazepin-1-yl]carbonyl]-2′-[3-(propylamino)propoxy][1,1′-biphenyl]-4-amine] | 0.28 nM | 92 nM |  |  |  |
| CCOC(=O)CC(=O)NCCCOc1cc(C(=O)N2CC[C@H](C)Nc3ccccc32)ccc1-c1ccc2[nH]ccc2c1 [Example 170, ethyl 3-[[3-[2-(1H-indol-5-yl)-5-[[(4S)-4-methyl-2,3,4,5-tetrahydro-1H-1,5-benzodiazepin-1-yl]carbonyl]phenoxy]propyl]amino]-3-oxopropanoate] | 0.37 nM | 2.6 nM |  |  |  |

More lines, main results first:

| Ki [1] | Ki [2] | Structure (SMILES) | Toxicity expressing dose (male ICR mice) | AVP vasopressure inhibition effect after 8 hours since administration (V1a receptor) | maximum vasopressure inhibition rate (V1a receptor) |
| --- | --- | --- | --- | --- | --- |
| 0.19 nM | 53 nM | CCCN(C)CCCCOc1cc(C(=O)N2CC[C@H](C)Nc3ccccc32)ccc1-c1ccc(NCC)cc1 [Example 156] |  |  |  |
| 0.13 nM | 29 nM | C[C@H]1CCN(C(=O)c2ccc(-c3ccc4[nH]ccc4c3)c(C(=O)OCCCCN(C)C)c2)c2ccccc2N1 [Example 162, 4-(dimethylamino)butyl 2-(1H-indol-5-yl)-5-[[(4S)-4-methyl-2,3,4,5-tetrahydro-1H-1,5-benzodiazepin-1-yl]carbonyl]benzoate] |  |  |  |
| 0.13 nM | 4.9 nM | CC1CCN(C(=O)c2ccc(-c3ccc4[nH]ccc4c3)c(OCCCNC(=O)CN)c2)c2ccccc2N1 (stereo not drawn) [Example 169, 2-amino-N-[3-[2-(1H-indol-5-yl)-5-[(4-methyl-2,3,4,5-tetrahydro-1H-1,5-benzodiazepin-1-yl]carbonyl]phenoxy]propyl]acetamide] |  |  |  |
| 0.093 nM | 7.1 nM | CCN(C)CCCCOc1cc(C(=O)N2CC[C@H](C)Nc3ccccc32)ccc1-c1ccc2[nH]ccc2c1 [Example 172, N-ethyl-4-[2-(1H-indol-5-yl)-5-[[(4S)-4-methyl-2,3,4,5-tetrahydro-1H-1,5-benzodiazepin-1-yl]carbonyl]phenoxy]-N-methyl-1-butaneamine] |  |  |  |
| 0.21 nM | 10 nM | CCCCN(C)CCCCOc1cc(C(=O)N2CC[C@H](C)Nc3ccccc32)ccc1-c1ccc2[nH]ccc2c1 [Example 173, N-butyl-4-[2-(1H-indol-5-yl)-5-[[(4S)-4-methyl-2,3,4,5-tetrahydro-1H-1,5-benzodiazepin-1-yl]carbonyl]phenoxy]-N-methyl-1-butaneamine] |  |  |  |
| 0.35 nM | 11 nM | CCCCCN(C)CCCCOc1cc(C(=O)N2CC[C@H](C)Nc3ccccc32)ccc1-c1ccc2[nH]ccc2c1 [Example 174, N-[4-[2-(1H-indol-5-yl)-5-[[(4S)-4-methyl-2,3,4,5-tetrahydro-1H-1,5-benzodiazepin-1-yl]carbonyl]phenoxy]butyl]-N-methyl-1-pentaneamine] |  |  |  |
